Laboratory results published in patent publication US20210355086A1, “PROCESS FOR PREPARING A NOVEL PHENICOL ANTIBACTERIAL AGENT” (Zoetis Services LLC, priority 2018, published 2021).

What was measured:
[1] = tested on: M. haemolytica (strain 34195); assay: M. haemolytica trans-tracheal challenge study in Holstein/Holstein cross cattle; details: for back transform LSmean percent lung lesions / mortality: end of study (6 days)
[2] = tested on: A3579 (OSU-012103-BHI) strain of Mannheimia haemolytica; assay: Mannheimia haemolytica trans-tracheal challenge BRD study in dairy calves; assay type: in vivo; details: for percentage of lung lesion at necropsy, upper range value: control about 45%
Protocol: In one study, healthy dairy calves (N=15/group; 85-140 kg) were trans-tracheally infected -2 to -1 days with the […] (OSU-012103-BHI) strain of Mannheimia haemolytica. The challenge dose ranged from about […] to 4.9×10^8 CFU. On Day 0, BRD symptomatic animals received a single subcutaneous dose of saline (control) or test (20 or 40 mg/kg) compound. At necropsy, control animals presented with an upper range of lung lesions of about 45%. […] Therefore, a single dose of the Formula (1) compound administered subcutaneously was effective for the treatment of BRD caused by M. haemolytica in dairy calves.

[3] = tested on: naturally occurring BRD infection; assay: Naturally occurring BRD infection treatment study in cattle; assay type: in vivo, cattle (mixed beef and/or dairy breeds); details: for treatment success based on respiratory symptoms and attitude: control about 20%
Protocol: In a second study, cattle (mixed beef and/or dairy breeds; 180-270 kg) were treated from a naturally occurring BRD infection. Animals (n=40/group) received a single subcutaneous dose of saline (control) or test (15 mg/kg or 20 mg/kg) compound. Overall, treatment success, based on respiratory symptoms (rate, mucopurulent nasal or ocular discharge, open mouth breathing) and attitude (alert, stimuli response time, muscle weakness, ataxia, swaying) was about 37% and 47% for the 15 mg/kg and 20 mg/kg dose, respectively. In contrast, control animal success was about 20%.

[4] = tested on: Gram-positive bacteria and Gram-negative bacteria; details: background statement; cited from earlier work
[5] = T03, positive control, dose not given, subcutaneously 4-6 hours post challenge
[6] = 40 mg/kg (T02, T05) subcutaneously 4-6 hours post challenge, saline T01 35.1%
[7] = 40 mg/kg (T02, T05) subcutaneously 4-6 hours post challenge, saline T01 53.3%

| SMILES | back transform LSmean percent lung lesions [1, 5] | mortality [1, 5] | back transform LSmean percent lung lesions [1, 6] | mortality [1, 7] | percent lung lesions compared with T03 (Baytril) ([1]; T04 (20 mg/kg) and T05 (40 mg/kg)) | back transform LSmean percent lung lesions ([1]; T04, 20 mg/kg subcutaneously 4-6 hours post challenge, saline T01 35.1%) | mortality ([1]; T04, 20 mg/kg subcutaneously 4-6 hours post challenge, saline T01 53.3%) | percentage of lung lesion at necropsy, upper range value ([2]; 20 mg/kg single subcutaneous dose on Day 0) | percentage of lung lesion at necropsy, upper range value ([2]; 40 mg/kg single subcutaneous dose on Day 0) | treatment of BRD caused by M. haemolytica (conclusion) ([2]; single dose administered subcutaneously, dairy calves) | treatment success based on respiratory symptoms and attitude ([3]; 15 mg/kg single subcutaneous dose) | treatment success based on respiratory symptoms and attitude ([3]; 20 mg/kg single subcutaneous dose) | treatment effect in cattle with natural BRD infections (conclusion) ([3]; single subcutaneous dose 15 or 20 mg/kg) | antibacterial activity relative to thiamphenicol [4] |
| --- | --- | --- | --- | --- | --- | --- | --- | --- | --- | --- | --- | --- | --- | --- |
| CCN1CCN(c2cc3c(cc2F)c(=O)c(C(=O)O)cn3C2CC2)CC1 [Baytril, enrofloxacin, reference compound] | 9.1% | 0% | – | – | – | – | – | – | – | – | – | – | – | – |
| CS(=N)(=O)c1ccc(-c2ccc([C@@H](O)[C@@H](CF)NC(=O)C(F)F)cc2)cn1 (stereo partly drawn) [Formula (1) compound, 2,2-difluoro-N-((1R,2S)-3-fluoro-1-hydroxy-1-(4-(6-(S-methylsulfonimidoyl)pyridin-3-yl)phenyl)propan-2-yl)acetamide] | – | – | 6.8% | 0% | not different | 13.3% | 0% | about 12% | ~8% | effective | about 37% | ~47% | significant treatment effect | – |
| CS(=O)(=O)c1ccc([C@@H](O)[C@@H](CF)NC(=O)C(Cl)Cl)cc1 [Nuflor, florfenicol, reference compound] | – | – | 32.1% | 46.7% | – | – | – | – | – | – | – | – | – | up to 10 times |
